These results are taken from US4847268A, “8-phenylthio-tetrahydroquinolines and anti-allergic use thereof” (Roussel Uclaf, priority 1986, dated 1989).

The target of one assay is T1, 5-lipoxygenase (Rattus norvegicus, UniProt P12527).
T1 construct: pre-labelled rat peritoneal neutrophils; endogenous in cells; host or cells: rat peritoneal neutrophils
T1 sequence (P12527 1-673): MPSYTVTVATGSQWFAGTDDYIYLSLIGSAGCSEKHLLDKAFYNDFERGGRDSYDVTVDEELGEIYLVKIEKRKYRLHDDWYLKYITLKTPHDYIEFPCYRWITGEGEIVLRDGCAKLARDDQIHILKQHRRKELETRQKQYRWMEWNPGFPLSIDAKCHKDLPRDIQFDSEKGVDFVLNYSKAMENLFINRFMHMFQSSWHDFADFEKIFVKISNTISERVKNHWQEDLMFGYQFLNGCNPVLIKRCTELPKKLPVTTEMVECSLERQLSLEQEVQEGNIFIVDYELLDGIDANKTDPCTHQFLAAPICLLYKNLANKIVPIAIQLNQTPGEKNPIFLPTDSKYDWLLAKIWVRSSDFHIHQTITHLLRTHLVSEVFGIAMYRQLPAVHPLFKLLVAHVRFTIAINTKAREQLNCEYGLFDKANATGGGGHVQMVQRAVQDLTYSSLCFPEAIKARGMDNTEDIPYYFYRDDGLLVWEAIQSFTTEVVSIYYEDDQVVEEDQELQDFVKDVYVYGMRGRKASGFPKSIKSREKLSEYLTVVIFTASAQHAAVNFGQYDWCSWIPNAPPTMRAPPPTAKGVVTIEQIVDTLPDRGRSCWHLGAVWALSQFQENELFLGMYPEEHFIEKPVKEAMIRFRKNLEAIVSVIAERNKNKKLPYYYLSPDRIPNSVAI
The assay can be described thus: 5-LIPOX: inhibition of Ca++ ionophore (A23187)-induced release of 5-lipoxygenase products from [14C]-arachidonic acid pre-labelled rat peritoneal neutrophils. Conditions: A23187-induced release of leukotriene D4 and 5-HETE, determined graphically from dose-response curves, read-out: 5-LIPOX: concentration of test compound causing 50% inhibition of control response. The format is cell-based. The source says: A. 5-LIPOX Inhibition of the Ca^++ ionophore (A23187)-induced release of 5-lipoxygenase products ([…] and 5-HETE) from [^14 C]-arachidonic acid pre-labelled rat peritoneal neutrophils. Assayed by a modification of the method reported by Ahnfelt-Ronne et al [Biochemical Pharmacology, Vol. 31, No. 16, pp. 2619-2624 (1982)]. The data presented are micromolar concentrations of test compound causing 50% inhibition of control response determined graphically from dose-response curves.

A further assay deals with T2, LTD4 receptor (Cavia porcellus, UniProt Q2NNR5).
T2 construct: a membrane preparation of guinea-pig lung tissue; from tissue; host or cells: guinea-pig lung membranes
T2 sequence (Q2NNR5 1-340): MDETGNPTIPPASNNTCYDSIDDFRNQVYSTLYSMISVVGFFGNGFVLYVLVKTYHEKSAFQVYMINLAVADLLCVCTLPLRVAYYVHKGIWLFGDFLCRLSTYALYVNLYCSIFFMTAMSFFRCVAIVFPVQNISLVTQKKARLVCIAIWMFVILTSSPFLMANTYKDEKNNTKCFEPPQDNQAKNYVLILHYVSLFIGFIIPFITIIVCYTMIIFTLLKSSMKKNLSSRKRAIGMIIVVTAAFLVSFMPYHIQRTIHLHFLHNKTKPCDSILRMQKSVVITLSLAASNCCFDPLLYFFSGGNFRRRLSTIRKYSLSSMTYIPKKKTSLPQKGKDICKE
Nature of the assay: LTD4 RECEPTOR: inhibition of specific binding of [3H]-LTD4 to a membrane preparation of guinea-pig lung tissue. Conditions: [3H]-LTD4, guinea-pig lung membrane preparation; determined graphically from dose-response curves; read-out: LTD4 receptor: concentration of test compound causing 50% inhibition of specific binding. The source says: B. LTD4 RECEPTOR Inhibition of the specific binding of [^3 H]-LTD4 to a membrane preparation of guinea-pig lung tissue assayed by a modification of a method reported by Bruns et al [Life Sciences, Vol. 33, pp. 645-653 (1983)]. The data presented are micromolar concentrations of test compound causing 50% inhibition of specific binding determined graphically from dose-response curves.

Where a name gives a salt, the structure may show the parent alone.

Turning to `Clc1ccc(SC2CCCc3cccnc32)cc1` (stereo not shown) [Example 1, 8-(4-chlorophenylthio)-5,6,7,8-tetrahydroquinoline hydrochloride], the IC50 at 5-lipoxygenase was 4.2 µM; on LTD4 receptor it was 22.4 µM.
In the case of `N#Cc1ccc(SC2CCCc3cccnc32)cc1` (stereo not shown) [Example 2, 4-(5,6,7,8-tetrahydroquinoline-8-ylthio)-benzonitrile], the IC50 on 5-lipoxygenase stood at 31 µM.
Take `O=[N+]([O-])c1ccc(SC2CCCc3cccnc32)cc1` (stereo not shown) [Example 4, 8-(4-nitrophenylthio)-5,6,7,8-tetrahydroquinoline hydrochloride]: the IC50 worked out at 12.6 µM at 5-lipoxygenase and 26.3 µM at LTD4 receptor.
The matching figures for `Cc1ccc(SC2CCCc3cccnc32)cc1` (stereo not shown) [Example 5, 8-(4-methylphenylthio)-5,6,7,8-tetrahydroquinoline hydrochloride]: 3 µM and 23.4 µM.
Turning to `c1cnc2c(c1)CCCC2Sc1cccc2ccccc12` (stereo not shown) [Example 6, 8-(1-naphthylthio)-5,6,7,8-tetrahydroquinoline], the results for the IC50 at 5-lipoxygenase and on LTD4 receptor were 1.7 µM and 52.5 µM, respectively.
The matching figures for `Nc1ccc(SC2CCCc3cccnc32)cc1` (stereo not shown) [Example 7, 8-(4-aminophenylthio)-5,6,7,8-tetrahydroquinoline]: 25 µM and more than 100 µM.
As for `Oc1ccc(SC2CCCc3cccnc32)cc1` (stereo not shown) [Example 8, 8-(4-hydroxyphenylthio)-5,6,7,8-tetrahydroquinoline], on 5-lipoxygenase, the IC50 stood at 14.1 µM.
On the same count and under the same terms, with `c1cnc2c(c1)CCCC2Sc1ccc2ccccc2c1` (stereo not shown) [Example 9, 8-(2-naphthylthio)-5,6,7,8-tetrahydroquinoline hydrochloride] the figure was 2.3 µM.
On to `CCCCc1ccc(SC2CCCc3cccnc32)cc1` (stereo not shown) [Example 10, 8-(4-n-butylphenylthio)-5,6,7,8-tetrahydroquinoline hydrochloride], for which, on 5-lipoxygenase, the IC50 was 1.9 µM.
Same read-out and setting: with `CCCCCC(O)c1cccc(SC2CCCc3cccnc32)c1` (stereo not shown) [Example 11, 8[3-(1-hydroxyhexyl)-phenylthio]-5,6,7,8-tetrahydroquinoline] the figure was 5.6 µM; with `NS(=O)(=O)c1ccc(SC2CCCc3cccnc32)cc1` (stereo not shown) [Example 12, 4-(5,6,7,8-tetrahydroquinoline-8-ylthio)-benzenesulfonamide], 26 µM.
Consider `COc1ccc(SC2CCCc3cccnc32)cc1` (stereo not shown) [Example 14, 8-(4-methoxyphenylthio)-5,6,7,8-tetrahydroquinoline hydrochloride], for which the figures for the IC50 on 5-lipoxygenase and at LTD4 receptor were 13.2 µM and 16.6 µM, respectively.
On to `CCc1ccc(SC2CCCc3cccnc32)cc1` (stereo not shown) [Example 15, 8-(4-ethylphenylthio)-5,6,7,8-tetrahydroquinoline hydrochloride], for which the IC50 on 5-lipoxygenase came out at 4 µM.
The same measure, in the same setting: with `O=C(O)c1ccc(SC2CCCc3cccnc32)cc1` (stereo not shown) [Example 16, 4-(5,6,7,8-tetrahydroquinoline-8-ylthio)-benzoic acid] the figure was more than 100 µM; with `CCCCOc1ccc(SC2CCCc3cccnc32)cc1` (stereo not shown) [Example 17, 8-(4-n-Butoxyphenylthio)-5,6,7,8-tetrahydroquinoline hydrochloride], 3.7 µM.
On the same count and under the same terms, the same measure for `CCOc1ccc(SC2CCCc3cccnc32)cc1` (stereo not shown) [Example 18, 8-(4-ethoxyphenylthio)-5,6,7,8-tetrahydroquinoline hydrochloride]: 11.2 µM; for `CC(=O)Oc1ccc(SC2CCCc3cccnc32)cc1` (stereo not shown) [Example 19, 8-(4-acetoxyphenylthio)-5,6,7,8-tetrahydroquinoline hydrochloride]: 45 µM; for `COC(=O)c1ccc(SC2CCCc3cccnc32)cc1` (stereo not shown) [Example 20, Methyl 4-(5,6,7,8-tetrahydroquinoline-8-ylthio)-benzoate hydrochloride]: 18.6 µM.
Consider `O=[N+]([O-])c1cc(SC2CCCc3cccnc32)ccc1O` (stereo not shown) [Example 21, 8-(4-hydroxy-3-nitrophenylthio)-5,6,7,8-tetrahydroquinoline], for which the IC50 on 5-lipoxygenase is 33 µM.
